This note sets out measurements from publication PMC7961587, “Novel Cell Permeable Polymers of N-Substituted L-2,3-Diaminopropionic Acid (DAPEGs) and Cellular Consequences of Their Interactions with Nucleic Acids” (International Journal of Molecular Sciences, 2021).

Data set [1] relates to MDA-MB-231 or HB-2 cell lines. Nature of the data set: Cytotoxicity assay: MTT. Format: cell-based, human. Particulars: 10 µM; MTT, Figure S2; HB-2 and MDA-MB-231. As to the method: Cell viability against cell-penetrating compounds was detected by the MTT assay. The HB2 and MDA-MB-231 cells were seeded into 96-well plates at a density of 5 × 10^3/well and 7 × 10^3/well, respectively, and incubated in complete medium (100 µL/well) for 48 h. […] Cells incubated in media without any test compounds were used as control. After incubation, medium containing test compounds was removed, and 225 µL fresh medium with 25 µL 3-(4,5-dimethylthiazol-2-yl)-2,5-diphenyltetrazolium bromide (MTT) was added (0.5 mg/mL per well). After incubation at 37 °C for 4 h, supernatants were removed, and the formazan crystals were dissolved overnight with dimethyl sulfoxide (DMSO; 150 µL/well). Results were analyzed using a microplate reader (SPECTROstar Nano, BMG LABTECH, Ortenberg, Germany) at 570 nm and 690 nm.

Data set [2] has as its system HB2 and MDA-MB-231 cells. In words: Cell permeability and localization by fluorescence microscopy. Type of data set: cell-based, human. The text has this: Preliminary cell permeability experiments facilitated the identification of three groups of compounds. […] The first group includes compound 4 and its derivatives (4a and 4b) and the family of compound 5 (5a and 5b). Compounds 4 and 5 are similar in structure and are composed of six residues of diaminopropionic acid (Dap) decorated with side chains of different lengths, terminating with the same highly positive guanidine moiety. […] Both compounds display unique cellular localization. […] We believe that such effective nuclear localisation of the first group of tested compounds is due to the effective mimicking of the nuclear localisation sequence (NLS). Such sequence consists of several positively charged lysines or arginines present in the protein structure. Additionally, side chain length of the polymer molecules seems to be a crucial factor that is optimal for compounds belonging to first group of polymers.
HB2 and MDA-MB-231 cells were seeded on 24-well plates at a density 1.5 × 10^4/well and 4 × 10^4/well, respectively, and incubated in 0.5 mL complete medium for 48 h. Subsequently, cells were washed with phosphate-buffered saline (PBS), and fresh medium with a fluorescently labeled peptide was added to each well at a concentration of 10 µM. For nucleus staining a DAPI solution (ThermoFisher Scientific, Waltham, MA, USA, […] R37606) in PBS was employed in conditions recommended by the supplier. After the incubation (2 h or 24 h), cells were washed thoroughly with PBS, and then a phenol red-free culture medium (FluoroBrite, DMEM) was added. Subsequently, the cells were examined using an Olympus IX51 fluorescence microscope (Olympus, Tokyo, Japan) using appropriate filters: blue for DAPI, green for FITC, and red TAMRA. Next, the images were merged and colocalization of the dyes’ emission were analyzed.

Data set [3] concerns the target dsDNA (76 bp fragment) containing the sequence of beta-actin. In words: Microscale thermophoresis (MST), dsDNA binding. The conditions noted are these: Monolith NT.115, 0.437 µM 5/6-FAM-labeled compound, dsDNA 6.1 nM–200 µM, EDBS buffer pH 8, 32 °C 1 h, scanned at 25 °C, at least two independent experiments, read-out: Binding constant, double-stranded DNA (MST). More on the design: species or system Homo sapiens. On the procedure: (§1) Figure 7 Microscale thermophoresis (MST) analysis of dsDNA binding by 5/6-FAM-labeled compounds. The MST analysis. FAM-labeled compounds 1a (A), 4a (B), 5a (C), and ssDNA binding by 5/6-FAM-labeled compounds 1a (E), 4a (F), 5a (G) was performed using the Monolith NT.115 instrument (NanoTemper). Binding was measured between increasing concentrations (6.1 nM–200 µM) of dsDNA (76 bp fragment) and 0.437 µM of the indicated compounds labeled with 5/6-FAM. Control experiments were performed with DNA and 5/6-FAM dye (D,H).
(§2) Figure 9 Microscale thermophoresis (MST) analysis of dsDNA binding by 5/6-FAM-labeled compounds. The MST analysis of dsDNA binding by 5/6-FAM-labeled compounds 13a (A) and 14a (B), and ssDNA binding by 5/6-FAM-labeled compounds 13a (D) and 14a (E) was performed using the Monolith NT.115 instrument (NanoTemper). Binding was measured between increasing concentration (6.1 nM–200 µM) of dsDNA (76 bp fragment) and 0.437 µM of the indicated compounds labeled with 5/6-FAM. A control experiment was performed with DNA and 5/6-FAM dye (C,F).
(§3) Microscale thermophoresis was performed using the Monolith NT.115 instrument (NanoTemper Technologies GmbH, Munich, Germany). Binding between dsDNA (76 bp) or ssDNA (76 nt) fragments and test compounds labeled with 5/6-FAM was measured. […] All data were analyzed using MO Affinity Analysis software (NanoTemper, Munich, Germany).
(In general: MST reads how a fluorescent partner responds to local heating, with and without ligand.)

For a further data set, the target named is ssDNA (76 nt) fragment. Nature of the data set: Microscale thermophoresis (MST), ssDNA binding. More on the design: species or system Homo sapiens. Particulars: Monolith NT.115, 0.437 µM 5/6-FAM-labeled compound, EDBS buffer pH 8, 32 °C 1 h, scanned at 25 °C, at least two independent experiments, read-out: Binding constant, single-stranded DNA (MST). As to the method:
as §1, §2, §3

In data set [4] the test system is HB2 and MDA-MB-231 cells. In words: Cytotoxicity assay CCK-8. Format: cell-based, human. The conditions noted are these: CCK8, Figure S5; 1–100 µM; 2 h or 24 h. As to the method: Cell viability against cell-penetrating peptidomimetics was detected using the cell counting kit-8 (CCK-8) assay (Sigma Aldrich, Poznan, Poland). The HB2 and MDA-MB-231 cells were seeded into 96-well plates at a density of 5 × 10^3/well and 7 × 10^3/well, respectively, and incubated in complete medium (100 µL/well) for 48 h. Then, the medium was replaced with fresh medium (100 µL/well), and solutions of compounds at various concentrations (1, 5, 10, 20, 50, and 100 µM) were added; the cells were incubated for 2 h or 24 h. Cells incubated in media without any additives were used as control. After incubation, 10 µL/well of 2-(2-methoxy-4-nitrophenyl)-3-(4-nitrophenyl)-5-(2,4-disulfophenyl)-2H-tetrazolium, monosodium salt (WST-8) reagent was added according to the manufacturers’ instructions, and the mixture was incubated at 37 °C for 4 h. Cell viability was analyzed on the basis of formazan absorbance using a microplate reader (SPECTROstar Nano, BMG LABTECH, Ortenberg, Germany) at 450 nm.
Table 1S. Minimal charge to ratio (N/P) of each compoun d for efficient complexation with
DNA. *minimal N/P ratio resulting in effective complex formation based on EMSA. **ND ‐
No Sequence Minimal N/P ratio*
9 O2Oc‐[Dap(HO2)]6‐O2Oc‐NH2 No binding
Figure 5S. CCK8 cytotoxicity assay performed for three compounds (5, 13, and 14). Two
different cell lines were used: A) HB‐2 and B) MDA‐MB‐231 […]

The test system of data set [5] is HB2 and MDA-MB-231 cells. Nature of the data set: Transfection with pmaxGFP plasmid and cytotoxicity of plasmid:compound complexes. Format: cell-based, human. Particulars: pmaxGFP:compound complex 4.62 × 10^−10 M. The text has this:
Figure 10 (A) Fluorescence imaging of HB-2 and MDA-MB-231 cells transfected with pmaxGFP plasmid mixed with compounds 5, 13, 14, or the commercially available transfection reagent (control). (B) Cytotoxicity of plasmid pmaxGFP:compound complex in HB2 and MDA-MB-231 cells at the concentration of the complex equal to 4.62 × 10^−10 M.
In this experiment, second-generation compounds (compounds 5, 13, and 14) were used as transfection reagents. See transfection procedure in methodology below. After gene expression, the medium was removed and cells were lysed with 0.5 M NaOH (100 µL/well), and the fluorescence intensity was analyzed using a microplate reader at excitation and emission wavelengths of 488 and 510 nm, respectively.
In this experiment, second-generation (GO2)n compounds (compounds 5, 13, and 14) were used as transfection reagents. HB2 and MDA-MB-231 were seeded in 96-well plates at a density of 5 × 10^3/well and 7 × 10^3/well in complete medium and grown until 60–70% confluency. […] The DNA concentration was determined using UV readout at 260/280 nm. […] Results were observed by fluorescence microscopy.

Turning to 5′,6-FAM-O2Oc-(Arg)6-O2Oc-NH2 [1a], the “Cytotoxicity at the concentration used in the cell experiments, in words” value in data set [1] was “slightly cytotoxic”. The “Cell membrane crossing and localization, in words” value in the data set with HB2 and MDA-MB-231 cells [2] (10 µM, fluorescence microscopy, HB2 or MDA-MB-231 cells) is recorded as “partially visible in the cytoplasm in the form of granules”. Also, in the data set on HB2 and MDA-MB-231 cells [2] (fluorescence microscope Olympus IX51, 10 µM fluorescently labeled compound, DAPI nucleus staining), the “Cell Permeablility (Target): cellular localization” value is “cytoplasm”. Further, the Kd in data set [3] stood at 7.4 ± 0.1 µM; at ssDNA (76 nt) fragment, 0.02 ± 0.04 µM.

On to `N=C(N)NCCOCCOCC(=O)NC[C@H](NC(=O)COCCOCCN)C(=O)N[C@@H](CNC(=O)COCCOCCNC(=N)N)C(=O)N[C@@H](CNC(=O)COCCOCCNC(=N)N)C(=O)N[C@@H](CNC(=O)COCCOCCNC(=N)N)C(=O)N[C@@H](CNC(=O)COCCOCCNC(=N)N)C(=O)N[C@@H](CNC(=O)COCCOCCNC(=N)N)C(=O)N[C@@H](CNC(=O)COCCOCCNC(=N)N)C(=O)N[C@@H](CNC(=O)COCCOCCNC(=N)N)C(=O)NCCOCCOCC(N)=O` [compound 14, O2Oc-[Dap(GO2)]8-O2Oc-NH2], for which the “Cytotoxicity (CCK-8), in words” value in the data set with HB2 and MDA-MB-231 cells [4] was “low cytotoxicity”. The compound also displayed a Post-transfection cytotoxicity in the data set on HB2 and MDA-MB-231 cells [5] of 30%.
